Data: US12329738B2, “Urolithin A and a composition containing same for external use in inflammations of various etiologies” (WARSZAWSKI UNIWERSYTET MEDYCZNY, priority 2018, dated 2025)
Blank lines part the entries; values can stand above or below the compound they belong to.

Columns and labels:
TNF-alpha [1] = experiment: TNF-alpha production by THP-1 derived macrophages (ELISA); assay type: cell-based, human; conditions: 40 μM; LPS stimulation; FIG. 13
Description: (§1) Monocytes of the THP-1 line were cultured in RPMI 1640 medium supplemented with 10% FBS and 2 mM glutamine. For transformation of monocytes into macrophages, the cells were treated with 12.5 ng/mL PMA (phorbol 12-myristate 13-acetate) for 48 hours, then washed and incubated for 24 hours in a culture medium without PMA. After this time, urolithin A, urolithin B, iso-urolithin A and the corresponding glucuronides (GUA, GUB and GiUA) were added to the cells at a concentration of 40 μM. After 1 hour of incubation with the compounds, the cells were stimulated with LPS from Escherichia coli (10 ng/mL).
(§2) To assess the level of TNF-alpha production, the cells were incubated for 6 hours, to assess the expression of mRNA for TNF-alpha, the cells were incubated for 24 hours, to assess the effect on ERK1/2 phosphorylation, the cells were incubated for 35 minutes.
(§3) The level of TNF-alpha in the culture medium was determined using the immunochemical ELISA method (BD biosciences). Evaluation of the expression of mRNA for TNF-alpha was performed using real time PCR. After 24 hours of incubation, RNA was isolated using NucleoSpin RNA Clean-up (Macherey-Nagel). The amount and quality of isolated RNA was determined using 2100 Bioanalyzer (Agilent Technologies). The expression level of mRNA for TNF-α was determined using Brilliant II SYBR Green QPCR Kit and Aria Mx Real-Time PCR thermocycler (Agilent Technologies). The following were used as primers for TNF-alpha: forward: 5′-[…]-3′, reverse: 5′-[…]-3′. Beta-actin (ACTB) was used as the housekeeping gene; primer forward: 5′-[…]-3′, reverse: 5′-[…]-3′).
(§4) The obtained results of experiments on in vitro models were analyzed using the Statistica 13 program (StatSoft, Inc., Tulsa, OK, USA) and presented as mean values±SEM. Statistical significance was set at P≤0.05. The results with established normal distribution in the D'Agostin and Pearson test were prepared using analysis of variance (ANOVA). Parametric post-hoc analysis was performed using Dunnett's test.

[2] = test system: Wistar rats (DNCB-induced atopic dermatitis); experiment: Pruritus level (scratch reflexes) in DNCB-induced atopic dermatitis rat model; assay type: in vivo; conditions: topical ointment; urolithin A 0.2 and 1.0% (p<0.001), hydrocortisone 1% (p<0.01)
Description: Wistar rats aged 5-6 weeks (at the start of the experiment) kept under standard conditions with free access to feed and water were used for the tests. The animals were divided into 5 groups, 8 individuals in each group. To prepare 2,4-dinitrochlorobenzene (DNCB) composition inducing inflammation, DNCB was dissolved in 70% ethanol to a final concentration of 1.5% (w/v). Therapeutic composition was an ointment based on white petrolatum with 0.2% or 1.0% urolithin A added. The control ointment was white petrolatum without addition of urolithin A. The induction of chronic atopic dermatitis involved local 9-fold infiltration with 60 μl 1.5% 2,4-dinitrochlorobenzene (DNCB) on each (external and internal) surface of the right ear over 3 weeks (3 times a week). Negative control was the right ear of rats without induction inflammation. Treatment of atopic dermatitis with 0.2% or 1.0% urolithin composition and white petrolatum (control) or 1.0% hydrocortisone composition (positive control) was started eight days after sensitization—one day before the fourth application of DNCB. Ointments with appropriate for given group drug added were applied in a total volume of about 20 μl to each ear surface one day before and 6 hours after each DNCB application (for a period of 3 weeks). The negative control group consisted of rats without induced inflammation and treated with white petrolatum in a regimen analogous to the composition of urolithin A or hydrocortisone. Measurement of pruritus level (as measured by scratching reflexes) was evaluated as the total frequency of scratch reflexes during 10 minutes immediately after DNCB application on days 0, 4, 8, 12, 16, 20, 24, 28 and 32 of the experiment). Scratching was defined as a single or series of several reflexes of scratching with a paw directed at the site of DNCB application. The experimental results obtained were analyzed using the Statistica 7.1 program (StatSoft, Inc., Tulsa, OK, USA) and presented as mean values±SE. Statistical significance was set at P≤0.05. The results with established normal distribution in the D'Agostin and Pearson test were prepared using two- or three-factor analysis of variance (ANOVA). Parametric post-hoc analysis for individual time points was performed using the Bonferroni test.

[3] = test system: Wistar rats (DNCB-induced atopic dermatitis); experiment: Ear thickness (edema) in DNCB-induced atopic dermatitis rat model; assay type: in vivo
Description: It is similar to the indications for use of hydrocortisone, which was used as a positive control in the study. Urolitin A was obtained by synthesis according to Bialonska et al. (Bialonska et al., 2009) or purchased from Sigma-Aldrich. The ointment containing urolithin A was prepared by emulsifying the weighed substance into a solid vehicle (white petrolatum) using an unguator. Wistar rats aged 5-6 weeks (at the start of the experiment) kept under standard conditions with free access to feed and water were used for the tests. The animals were divided into 5 groups, 8 individuals in each group. To prepare 2,4-dinitrochlorobenzene (DNCB) composition inducing inflammation, DNCB was dissolved in 70% ethanol to a final concentration of 1.5% (w/v). Therapeutic composition was an ointment based on white petrolatum with 0.2% or 1.0% urolithin A added. The control ointment was white petrolatum without addition of urolithin A. The induction of chronic atopic dermatitis involved local 9-fold infiltration with 60 μl 1.5% 2,4-dinitrochlorobenzene (DNCB) on each (external and internal) surface of the right ear over 3 weeks (3 times a week). Negative control was the right ear of rats without induction inflammation. Treatment of atopic dermatitis with 0.2% or 1.0% urolithin composition and white petrolatum (control) or 1.0% hydrocortisone composition (positive control) was started eight days after sensitization—one day before the fourth application of DNCB. Ointments with appropriate for given group drug added were applied in a total volume of about 20 μl to each ear surface one day before and 6 hours after each DNCB application (for a period of 3 weeks). The negative control group consisted of rats without induced inflammation and treated with white petrolatum in a regimen analogous to the composition of urolithin A or hydrocortisone. Ear thickness was assessed using an electronic mini caliper the day before inflammation was induced (day 0) and then on days 4 and 8 prior to treatment and on days 4, 8, 12, 16, […] of therapy with urolithin A composition (on days 12, 16, 20, 24, 28 and 32 after inflammation inducing, respectively). The experimental results obtained were analyzed using the Statistica 7.1 program (StatSoft, Inc., Tulsa, OK, USA) and presented as mean values±SE. Statistical significance was set at P≤0.05. The results with established normal distribution in the D'Agostin and Pearson test were prepared using two- or three-factor analysis of variance (ANOVA). Parametric post-hoc analysis for individual time points was performed using the Bonferroni test.

[4] = test system: Wistar rats (DNCB-induced atopic dermatitis); experiment: Peripheral blood morphology in DNCB-induced atopic dermatitis rat model; assay type: in vivo
Description: Wistar rats aged 5-6 weeks (at the start of the experiment) kept under standard conditions with free access to feed and water were used for the tests. The animals were divided into 5 groups, 8 individuals in each group. To prepare 2,4-dinitrochlorobenzene (DNCB) composition inducing inflammation, DNCB was dissolved in 70% ethanol to a final concentration of 1.5% (w/v). Therapeutic composition was an ointment based on white petrolatum with 0.2% or 1.0% urolithin A added. The control ointment was white petrolatum without addition of urolithin A.
The induction of chronic atopic dermatitis involved local 9-fold infiltration with 60 μl 1.5% 2,4-dinitrochlorobenzene (DNCB) on each (external and internal) surface of the right ear over 3 weeks (3 times a week). Negative control was the right ear of rats without induction inflammation.
Treatment of atopic dermatitis with 0.2% or 1.0% urolithin composition and white petrolatum (control) or 1.0% hydrocortisone composition (positive control) was started eight days after sensitization—one day before the fourth application of DNCB. Ointments with appropriate for given group drug added were applied in a total volume of about 20 μl to each ear surface one day before and 6 hours after each DNCB application (for a period of 3 weeks). The negative control group consisted of rats without induced inflammation and treated with white petrolatum in a regimen analogous to the composition of urolithin A or hydrocortisone.
2 mL blood samples were drawn into syringes (containing heparin as an anticoagulant) from the heart under general anesthesia (isoflurane) on day 32 of the experiment. The test was conducted using the DIATRON automated hematology analyzer. Peripheral blood analysis included the assessment of morphotic elements in blood: erythrocytes, leukocytes and thrombocytes and determination of the number and percentage of different types of leukocytes—WBC as well as values of erythrocyte indicators: hemoglobin (HGB), hematocrit (HCT), mean corpuscular volume (MCV), mean corpuscular hemoglobin (MCH) and mean corpuscular hemoglobin concentration (MCHC).
The experimental results obtained were analyzed using the Statistica 7.1 program (StatSoft, Inc., Tulsa, OK, USA) and presented as mean values±SE. Statistical significance was set at P≤0.05. The results with established normal distribution in the D'Agostin and Pearson test were prepared using two- or three-factor analysis of variance (ANOVA). Parametric post-hoc analysis for individual time points was performed using the Bonferroni test.

mRNA for TNF-alpha = experiment: TNF-alpha mRNA expression in THP-1 derived macrophages (real time PCR); assay type: cell-based, human; conditions: 40 μM; LPS stimulation; FIG. 14
Description: as §1, §2, §3, §4

ERK1/2 = ERK1/2 phosphorylation in THP-1 derived macrophages (Western blotting); assay type: cell-based, human; conditions: 40 μM; LPS 10 ng/mL, 35 min; FIG. 15
Description: Monocytes of the THP-1 line were cultured in RPMI 1640 medium supplemented with 10% FBS and 2 mM glutamine. For transformation of monocytes into macrophages, the cells were treated with 12.5 ng/mL PMA (phorbol 12-myristate 13-acetate) for 48 hours, then washed and incubated for 24 hours in a culture medium without PMA. After this time, urolithin A, urolithin B, iso-urolithin A and the corresponding glucuronides (GUA, GUB and GiUA) were added to the cells at a concentration of 40 μM. After 1 hour of incubation with the compounds, the cells were stimulated with LPS from Escherichia coli (10 ng/mL). To assess the level of TNF-alpha production, the cells were incubated for 6 hours, to assess the expression of mRNA for TNF-alpha, the cells were incubated for 24 hours, to assess the effect on ERK1/2 phosphorylation, the cells were incubated for 35 minutes. […] The obtained results of experiments on in vitro models were analyzed using the Statistica 13 program (StatSoft, Inc., Tulsa, OK, USA) and presented as mean values±SEM. Statistical significance was set at P≤0.05. The results with established normal distribution in the D'Agostin and Pearson test were prepared using analysis of variance (ANOVA). Parametric post-hoc analysis was performed using Dunnett's test.

TNF-alpha [5] = experiment: TNF-alpha production by macrophages from human peripheral blood monocytes (ELISA); assay type: cell-based; conditions: 40 μM; LPS 100 ng/mL, 24 h; FIG. 16
[6] = day 32, 1% hydrocortisone, urolithin A 0.2 and 1%

Compound: CC(=O)Oc1ccc2c(c1)oc(=O)c1ccccc12 [3-acetyl-urolithin B, reference compound]
TNF-alpha production by THP-1 derived macrophages (TNF-alpha [1]): did not show any activity

Compound: O=C(O)[C@H]1O[C@@H](Oc2ccc3c(c2)oc(=O)c2ccccc23)[C@H](O)[C@@H](O)[C@@H]1O [GUB, urolitin B 3-O-glucuronide]
TNF-alpha production by THP-1 derived macrophages (TNF-alpha [1]): did not show any activity

Compound: O=C(O)[C@H]1O[C@@H](Oc2ccc3c(c2)oc(=O)c2ccc(O)cc23)[C@H](O)[C@@H](O)[C@@H]1O [GiUA, Iso-urolithin A 3-O-glucuronide]
TNF-alpha production by THP-1 derived macrophages (TNF-alpha [1]): did not show any activity

MPV (fl), PDW (fl), PDWcv (%) ([4]; day 32): did not change
RBC, HGB, HCT, MCV ([4]; day 32): no changes
RDW parameter level ([4]; day 32, 1% hydrocortisone, p<0.05): decrease in the RDW parameter level
Compound: C[C@]12CCC(=O)C=C1CC[C@@H]1[C@@H]2[C@@H](O)C[C@@]2(C)[C@H]1CC[C@]2(O)C(=O)CO [hydrocortisone]
Scratching rate (frequency of scratch reflexes) [2]: reduction in scratching rate
Time profile of anti-edema effect, urolithin A vs. hydrocortisone ([3]; initial period of therapy (up to 12 days)): greater therapeutic effectiveness
Ear edema (ear thickness) after local therapy ([3]; topical ointment in white petrolatum, urolithin A 0.2 and 1.0%, hydrocortisone 1%, urolithin A p<0.001, hydrocortisone p<0.01): reduced
WBC (leukocyte) level ([4]; 1% composition, day 32, vs petrolatum, hydrocortisone p<0.05, urolithin A p<0.01): significant reduction in WBC
Final WBC values compared to negative control (without atopic dermatitis) ([4]; 1% hydrocortisone, urolithin A 0.2 and 1%): remained at a higher level compared to negative control groups
Thrombocrit (PCT %) ([4]; day 32, 1% composition, vs negative control, p<0.01): significantly higher values compared to the negative control group
Number of thrombocytes (PLT) ([4]; day 32, 1% composition, vs negative control, p<0.05): significantly higher values compared to the negative control group
Concentration of hemoglobin in erythrocytes (MCH and MCHC) ([4]; day 32, 1% hydrocortisone (p<0.05), urolithin A 0.2 and 1.0%): decrease in the concentration of hemoglobin in erythrocytes
Monocyte population [4, 6]: reducing the population of monocytes and neutrophils
Neutrophil population [4, 6]: reducing the population of monocytes and neutrophils
Lymphocyte level ([4]; day 32, 1% hydrocortisone, urolithin A 0.2 and 1%, vs petrolatum): no significant differences

Compound: O=c1oc2cc(O)ccc2c2cc(O)ccc12 [iso-urolithin A]
TNF-alpha mRNA expression in THP-1 derived macrophages (mRNA for TNF-alpha): stimulated mRNA expression
TNF-alpha production by THP-1 derived macrophages (TNF-alpha [1]): stimulated the production of TNF-alpha
ERK1/2 kinase phosphorylation in THP-1 derived macrophages (ERK1/2): much less active
Inhibition of TNF-alpha production by macrophages from human peripheral blood monocytes (TNF-alpha [5]): significantly less active

Compound: urolitin A 3-O-glucuronide and urolitin A 8-O-glucuronide [GUA]
TNF-alpha production by THP-1 derived macrophages (TNF-alpha [1]): did not show any activity
